Source: patent US10167262B2, “Herbicidal substituted 3-arylpyrazoles” (FMC CORPORATION, priority 2014, dated 2019)

Columns and labels:
Assay in all cases: Test E pre-/postemergence greenhouse test, plant response rating 0-100
Assay type in all cases: in vivo
[1] = tested on: Brazilian crabgrass (Digitaria horizontalis); details: Digitaria horizontalis, post-emergence, Postemergence, scale 0 to 100, read-out: Plant response rating, Crabgrass, Brazil
How it was run: (§1)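 Sow seeds in silt loam and treat preemergence; at the same time, spray postemergence on 1- to 4-leaf plants in peat/vermiculite mix. Use a non-phytotoxic solvent plus surfactant as carrier. Hold 14–21 days in greenhouse, then score visually 0–100 against controls.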

[2] = tested on: arrowleaf sida (Sida rhombifolia); details: for Arrowleaf Sida plant response rating: Preemergence
How it was run: as §1

[3] = tested on: barnyardgrass (Echinochloa crus-galli); details: scale 0 to 100; for Barnyardgrass plant response rating: Preemergence
How it was run: as §1

corn (Zea mays) = details: scale 0 to 100; for Corn plant response rating: Preemergence
How it was run: as §1

[4] = tested on: dayflower (Virginia (VA) dayflower, Commelina virginica); details: scale 0 to 100; for Dayflower, VA plant response rating: Preemergence
How it was run: as §1

[5] = tested on: fall panicum (Panicum dichotomiflorum); details: scale 0 to 100; for Panicum, Fall plant response rating: Preemergence
How it was run: as §1

[6] = tested on: field bindweed (Convolvulus arvensis); details: scale 0 to 100; for Field Bindweed plant response rating: Preemergence
How it was run: as §1

[7] = tested on: hairy beggarticks (Bidens pilosa); details: scale 0 to 100; for Beggarticks plant response rating: Preemergence
How it was run: as §1

[8] = tested on: palmer pigweed (Amaranthus palmeri); details: scale 0 to 100; for Pigweed, Palmer plant response rating: Preemergence
How it was run: as §1

[9] = tested on: sandbur (southern sandbur, Cenchrus echinatus); details: scale 0 to 100; for Sandbur plant response rating: Preemergence
How it was run: as §1

soybean (Glycine max) = details: scale 0 to 100; for Soybean plant response rating: Preemergence
How it was run: as §1

[10] = tested on: waterhemp (common waterhemp, Amaranthus rudis); details: scale 0 to 100; for Waterhemp plant response rating: Preemergence
How it was run: as §1

COCC(=O)n1cc(C(=O)c2ccccc2)c(-c2cc(Cl)cc(Cl)c2)n1 [Compound 16, 1-[4-benzoyl-3-(3,5-dichlorophenyl)-1H-pyrazol-1-yl]-2-methoxyethanone]
pest or weed control at 31 g/ha ([1]; 31 g ai/ha): 0% | pest or weed control at 62 g/ha ([1]; 62 g ai/ha): 0% | pest or weed control at 125 g/ha ([1]; 125 g ai/ha): 0% | pest or weed control at 250 g/ha ([1]; 250 g ai/ha): 0% | pest or weed control at 500 g/ha ([1]; 500 g ai/ha): 0% | Arrowleaf Sida plant response rating ([2]; 31 g ai/ha, scale 0 to 100): 25 | Arrowleaf Sida plant response rating ([2]; 62 g ai/ha, scale 0 to 100): 35 | Arrowleaf Sida plant response rating ([2]; 125 g ai/ha, scale 0 to 100): 90 | Arrowleaf Sida plant response rating ([2]; 250 g ai/ha, scale 0 to 100): 95 | Arrowleaf Sida plant response rating ([2]; 500 g ai/ha, scale 0 to 100): 100 | pest or weed control at 31 g/ha ([2]; Sida rhombifolia, post-emergence, Postemergence, 31 g ai/ha, scale 0 to 100): 95% | pest or weed control at 62 g/ha ([2]; Sida rhombifolia, post-emergence, Postemergence, 62 g ai/ha, scale 0 to 100): 98% | pest or weed control at 125 g/ha ([2]; Sida rhombifolia, post-emergence, Postemergence, 125 g ai/ha, scale 0 to 100): 98% | pest or weed control at 250 g/ha ([2]; Sida rhombifolia, post-emergence, Postemergence, 250 g ai/ha, scale 0 to 100): 98% | pest or weed control at 500 g/ha ([2]; Sida rhombifolia, post-emergence, Postemergence, 500 g ai/ha, scale 0 to 100 (0 no effect, 100 complete control)): 100% | pest or weed control at 31 g/ha ([3]; Echinochloa crus-galli, post-emergence, Postemergence, 31 g ai/ha): 0% | pest or weed control at 62 g/ha ([3]; Echinochloa crus-galli, post-emergence, Postemergence, 62 g ai/ha): 0% | pest or weed control at 125 g/ha ([3]; Echinochloa crus-galli, post-emergence, Postemergence, 125 g ai/ha): 0% | pest or weed control at 250 g/ha ([3]; Echinochloa crus-galli, post-emergence, Postemergence, 250 g ai/ha): 0% | pest or weed control at 500 g/ha ([3]; Echinochloa crus-galli, post-emergence, Postemergence, 500 g ai/ha): 0% | Barnyardgrass plant response rating ([3]; 31 g ai/ha): 0 | Barnyardgrass plant response rating ([3]; 62 g ai/ha): 0 | Barnyardgrass plant response rating ([3]; 125 g ai/ha): 0 | Barnyardgrass plant response rating ([3]; 250 g ai/ha): 0 | Barnyardgrass plant response rating ([3]; 500 g ai/ha): 0 | Corn plant response rating (corn (Zea mays); 31 g ai/ha): 0 | Corn plant response rating (corn (Zea mays); 62 g ai/ha): 0 | Corn plant response rating (corn (Zea mays); 125 g ai/ha): 0 | Corn plant response rating (corn (Zea mays); 250 g ai/ha): 0 | Corn plant response rating (corn (Zea mays); 500 g ai/ha): 0 | Corn plant response rating (crop injury, 0 = no effect, 100 = complete kill) at 31 g/ha (corn (Zea mays); Zea mays, post-emergence, Postemergence, 31 g ai/ha): 0% | Corn plant response rating (crop injury, 0 = no effect, 100 = complete kill) at 62 g/ha (corn (Zea mays); Zea mays, post-emergence, Postemergence, 62 g ai/ha): 0% | Corn plant response rating (crop injury, 0 = no effect, 100 = complete kill) at 125 g/ha (corn (Zea mays); Zea mays, post-emergence, Postemergence, 125 g ai/ha): 0% | Corn plant response rating (crop injury, 0 = no effect, 100 = complete kill) at 250 g/ha (corn (Zea mays); Zea mays, post-emergence, Postemergence, 250 g ai/ha): 0% | Corn plant response rating (crop injury, 0 = no effect, 100 = complete kill) at 500 g/ha (corn (Zea mays); Zea mays, post-emergence, Postemergence, 500 g ai/ha): 0% | pest or weed control at 31 g/ha ([4]; Commelina virginica, post-emergence, Postemergence, 31 g ai/ha): 0% | pest or weed control at 62 g/ha ([4]; Commelina virginica, post-emergence, Postemergence, 62 g ai/ha): 0% | pest or weed control at 125 g/ha ([4]; Commelina virginica, post-emergence, Postemergence, 125 g ai/ha): 0% | pest or weed control at 250 g/ha ([4]; Commelina virginica, post-emergence, Postemergence, 250 g ai/ha): 0% | pest or weed control at 500 g/ha ([4]; Commelina virginica, post-emergence, Postemergence, 500 g ai/ha): 0% | Dayflower, VA plant response rating ([4]; 31 g ai/ha): 0 | Dayflower, VA plant response rating ([4]; 62 g ai/ha): 0 | Dayflower, VA plant response rating ([4]; 125 g ai/ha): 0 | Dayflower, VA plant response rating ([4]; 250 g ai/ha): 0 | Dayflower, VA plant response rating ([4]; 500 g ai/ha): 0 | pest or weed control at 31 g/ha ([5]; Panicum dichotomiflorum, post-emergence, Postemergence, 31 g ai/ha): 0% | pest or weed control at 62 g/ha ([5]; Panicum dichotomiflorum, post-emergence, Postemergence, 62 g ai/ha): 0% | pest or weed control at 125 g/ha ([5]; Panicum dichotomiflorum, post-emergence, Postemergence, 125 g ai/ha): 60% | pest or weed control at 250 g/ha ([5]; Panicum dichotomiflorum, post-emergence, Postemergence, 250 g ai/ha): 30% | pest or weed control at 500 g/ha ([5]; Panicum dichotomiflorum, post-emergence, Postemergence, 500 g ai/ha): 65% | Panicum, Fall plant response rating ([5]; 31 g ai/ha): 0 | Panicum, Fall plant response rating ([5]; 62 g ai/ha): 0 | Panicum, Fall plant response rating ([5]; 125 g ai/ha): 0 | Panicum, Fall plant response rating ([5]; 250 g ai/ha): 0 | Panicum, Fall plant response rating ([5]; 500 g ai/ha): 0 | pest or weed control at 31 g/ha ([6]; Convolvulus arvensis, post-emergence, Postemergence, 31 g ai/ha): 0% | pest or weed control at 62 g/ha ([6]; Convolvulus arvensis, post-emergence, Postemergence, 62 g ai/ha): 0% | pest or weed control at 125 g/ha ([6]; Convolvulus arvensis, post-emergence, Postemergence, 125 g ai/ha): 0% | pest or weed control at 250 g/ha ([6]; Convolvulus arvensis, post-emergence, Postemergence, 250 g ai/ha): 0% | pest or weed control at 500 g/ha ([6]; Convolvulus arvensis, post-emergence, Postemergence, 500 g ai/ha): 0% | Field Bindweed plant response rating ([6]; 31 g ai/ha): 0 | Field Bindweed plant response rating ([6]; 62 g ai/ha): 0 | Field Bindweed plant response rating ([6]; 125 g ai/ha): 0 | Field Bindweed plant response rating ([6]; 250 g ai/ha): 0 | Field Bindweed plant response rating ([6]; 500 g ai/ha): 30 | pest or weed control at 31 g/ha ([7]; Bidens pilosa, post-emergence, Postemergence, 31 g ai/ha): 95% | pest or weed control at 62 g/ha ([7]; Bidens pilosa, post-emergence, Postemergence, 62 g ai/ha): 100% | pest or weed control at 125 g/ha ([7]; Bidens pilosa, post-emergence, Postemergence, 125 g ai/ha): 98% | pest or weed control at 250 g/ha ([7]; Bidens pilosa, post-emergence, Postemergence, 250 g ai/ha): 98% | pest or weed control at 500 g/ha ([7]; Bidens pilosa, post-emergence, Postemergence, 500 g ai/ha): 98% | Beggarticks plant response rating ([7]; 31 g ai/ha): 0 | Beggarticks plant response rating ([7]; 62 g ai/ha): 0 | Beggarticks plant response rating ([7]; 125 g ai/ha): 25 | Beggarticks plant response rating ([7]; 250 g ai/ha): 50 | Beggarticks plant response rating ([7]; 500 g ai/ha): 65 | pest or weed control at 31 g/ha ([8]; Amaranthus palmeri, post-emergence, Postemergence, 31 g ai/ha): 70% | pest or weed control at 62 g/ha ([8]; Amaranthus palmeri, post-emergence, Postemergence, 62 g ai/ha): 70% | pest or weed control at 125 g/ha ([8]; Amaranthus palmeri, post-emergence, Postemergence, 125 g ai/ha): 90% | pest or weed control at 250 g/ha ([8]; Amaranthus palmeri, post-emergence, Postemergence, 250 g ai/ha): 90% | pest or weed control at 500 g/ha ([8]; Amaranthus palmeri, post-emergence, Postemergence, 500 g ai/ha): 100% | Pigweed, Palmer plant response rating ([8]; 31 g ai/ha): 0 | Pigweed, Palmer plant response rating ([8]; 62 g ai/ha): 0 | Pigweed, Palmer plant response rating ([8]; 125 g ai/ha): 0 | Pigweed, Palmer plant response rating ([8]; 250 g ai/ha): 0 | Pigweed, Palmer plant response rating ([8]; 500 g ai/ha): 0 | pest or weed control at 31 g/ha ([9]; Cenchrus echinatus, post-emergence, Postemergence, 31 g ai/ha): 0% | pest or weed control at 62 g/ha ([9]; Cenchrus echinatus, post-emergence, Postemergence, 62 g ai/ha): 0% | pest or weed control at 125 g/ha ([9]; Cenchrus echinatus, post-emergence, Postemergence, 125 g ai/ha): 0% | pest or weed control at 250 g/ha ([9]; Cenchrus echinatus, post-emergence, Postemergence, 250 g ai/ha): 0% | pest or weed control at 500 g/ha ([9]; Cenchrus echinatus, post-emergence, Postemergence, 500 g ai/ha): 0% | Sandbur plant response rating ([9]; 31 g ai/ha): 0 | Sandbur plant response rating ([9]; 62 g ai/ha): 0 | Sandbur plant response rating ([9]; 125 g ai/ha): 0 | Sandbur plant response rating ([9]; 250 g ai/ha): 0 | Sandbur plant response rating ([9]; 500 g ai/ha): 0 | plant injury at 31 g/ha (soybean (Glycine max); Glycine max, post-emergence, Postemergence, 31 g ai/ha): 0% | plant injury at 62 g/ha (soybean (Glycine max); Glycine max, post-emergence, Postemergence, 62 g ai/ha): 0% | plant injury at 125 g/ha (soybean (Glycine max); Glycine max, post-emergence, Postemergence, 125 g ai/ha): 0% | plant injury at 250 g/ha (soybean (Glycine max); Glycine max, post-emergence, Postemergence, 250 g ai/ha): 0% | plant injury at 500 g/ha (soybean (Glycine max); Glycine max, post-emergence, Postemergence, 500 g ai/ha): 0% | Soybean plant response rating (soybean (Glycine max); 31 g ai/ha): 0 | Soybean plant response rating (soybean (Glycine max); 62 g ai/ha): 0 | Soybean plant response rating (soybean (Glycine max); 125 g ai/ha): 0 | Soybean plant response rating (soybean (Glycine max); 250 g ai/ha): 0 | Soybean plant response rating (soybean (Glycine max); 500 g ai/ha): 0 | pest or weed control at 31 g/ha ([10]; Amaranthus tuberculatus, post-emergence, Postemergence, 31 g ai/ha): 95% | pest or weed control at 62 g/ha ([10]; Amaranthus tuberculatus, post-emergence, Postemergence, 62 g ai/ha): 98% | pest or weed control at 125 g/ha ([10]; Amaranthus tuberculatus, post-emergence, Postemergence, 125 g ai/ha): 98% | pest or weed control at 250 g/ha ([10]; Amaranthus tuberculatus, post-emergence, Postemergence, 250 g ai/ha): 98% | pest or weed control at 500 g/ha ([10]; Amaranthus tuberculatus, post-emergence, Postemergence, 500 g ai/ha): 100% | Waterhemp plant response rating ([10]; 31 g ai/ha): 0 | Waterhemp plant response rating ([10]; 62 g ai/ha): 30 | Waterhemp plant response rating ([10]; 125 g ai/ha): 70 | Waterhemp plant response rating ([10]; 250 g ai/ha): 100 | Waterhemp plant response rating ([10]; 500 g ai/ha): 100
